According to BindingDB's records for doi:10.1021/jm9600611 (Cytel, 1996):

Experiment: Compound was tested for the inhibition of E-selectin-mediated cellular adhesion
Molecule `CCO[C@@H]1O[C@@H](CO)[C@H](O)[C@H](O[C@@H]2O[C@@H](CO)[C@@H](O[C@@H]3O[C@@H](CO)[C@H](O)[C@H](O[C@]4(C(=O)O)C[C@@H](O)[C@@H](NC(C)=O)[C@H]([C@H](O)[C@H](O)CO)O4)[C@@H]3O)[C@H](O[C@@H]3O[C@@H](C)[C@@H](O)[C@H](O)[C@@H]3O)[C@@H]2NC(=O)C2CCCCC2)[C@@H]1O` [Ethyl(Sodium 5-actamido-3,5-dideoxy-alpha-D-glycero-D-galacto-nonulopyronosylonate)-(2,3)-O-(beta-D-galactopyranosyl)-(1,4)-O(alpha-L-fucopyranosyl)-(1,3)-O-[2-(Cyclohexanecarboxylic acid amido)-2-deoxy-beta-D-glucopyranosyl]-(1,3)-O-beta-D-galactopyranoside] has an IC50 of 2900 µM. `CCO[C@@H]1O[C@@H](CO)[C@H](O)[C@H](O[C@@H]2O[C@@H](CO)[C@@H](O[C@@H]3O[C@@H](CO)[C@H](O)[C@H](O[C@]4(C(=O)O)C[C@@H](O)[C@@H](NC(C)=O)[C@H]([C@H](O)[C@H](O)CO)O4)[C@@H]3O)[C@H](O[C@@H]3O[C@@H](C)[C@@H](O)[C@H](O)[C@@H]3O)[C@@H]2NC(=O)c2ccccc2)[C@@H]1O` [Ethyl(Sodium 5-actamido-3,5-dideoxy-alpha-D-glycero-D-galacto-nonulopyronosylonate)-(2,3)-O-(beta-D-galactopyranosyl)-(1,4)-O(alpha-L-fucopyranosyl)-(1,3)-O-[2-(benzamido)-2-deoxy-beta-D-glucopyranosyl]-(1,3)-O-beta-D-galactopyranoside] gave an IC50 of 300 µM. Work on `CCO[C@@H]1O[C@@H](CO)[C@H](O)[C@H](O[C@@H]2O[C@@H](CO)[C@@H](O[C@@H]3O[C@@H](CO)[C@H](O)[C@H](O[C@]4(C(=O)O)C[C@@H](O)[C@@H](NC(C)=O)[C@H]([C@H](O)[C@H](O)CO)O4)[C@@H]3O)[C@H](O[C@@H]3O[C@@H](C)[C@@H](O)[C@H](O)[C@@H]3O)[C@@H]2NC(C)=O)[C@@H]1O` [Ethyl(Sodium 5-actamido-3,5-dideoxy-alpha-D-glycero-D-galacto-nonulopyronosylonate)-(2,3)-O-(beta-D-galactopyranosyl)-(1,4)-O(alpha-L-fucopyranosyl)-(1,3)-O-[2-(N-acetylamido)-2-deoxy-beta-D-glucopyranosyl]-(1,3)-O-beta-D-galactopyranoside(N-acetyl SLex)] yielded an IC50 of 1000 µM. For `CCO[C@@H]1O[C@@H](CO)[C@H](O)[C@H](O[C@@H]2O[C@@H](CO)[C@@H](O[C@@H]3O[C@@H](CO)[C@H](O)[C@H](O[C@]4(C(=O)O)C[C@@H](O)[C@@H](NC(C)=O)[C@H]([C@H](O)[C@H](O)CO)O4)[C@@H]3O)[C@H](O[C@@H]3O[C@@H](C)[C@@H](O)[C@H](O)[C@@H]3O)[C@@H]2NC(=O)c2ccc3ccccc3c2)[C@@H]1O` [Ethyl(Sodium 5-actamido-3,5-dideoxy-alpha-D-glycero-D-galacto-nonulopyronosylonate)-(2,3)-O-(beta-D-galactopyranosyl)-(1,4)-O(alpha-L-fucopyranosyl)-(1,3)-O-[2-(2-naphthamido)-2-deoxy-beta-D-glucopyranosyl]-(1,3)-O-beta-D-galactopyranoside], the IC50 was 80 µM.
